From ChEMBL document CHEMBL1201862, “PubChem BioAssay data set” (2004)
The source made the active and inactive calls.

Tests used:
HEK293 [1] = test: inhibition of NOD1-driven NF-kB reporter – cell-based, luminescence, uHTS, primary screen (AID 1578); format: functional; conditions: Homo sapiens
HEK293 [2] = test: cells; format: functional, cell-based; conditions: Homo sapiens
HEK293 [3] = test: cells; format: functional, cell-based; conditions: Homo sapiens; remark: listed apart in the source
HEK293 [4] = test: NOD2 signaling inhibitors in MDP-stimulated cells, cell-based, uHTS, luminescence (AID 2001); format: functional; conditions: Homo sapiens
Tumor necrosis factor = Tumor necrosis factor (Homo sapiens, UniProt P01375); test: analog potency on TNFa NF-kB signaling – cell-based, revised, SAR follow-up (AID 2337); format: functional
[5] = target: T1, Nucleotide-binding oligomerization domain-containing protein 1 (Homo sapiens, UniProt Q9Y239); test: blockers of NOD1 pathway activity – revised, SAR follow-up (AID 2333); format: functional
T1 sequence (Q9Y239 whole entry): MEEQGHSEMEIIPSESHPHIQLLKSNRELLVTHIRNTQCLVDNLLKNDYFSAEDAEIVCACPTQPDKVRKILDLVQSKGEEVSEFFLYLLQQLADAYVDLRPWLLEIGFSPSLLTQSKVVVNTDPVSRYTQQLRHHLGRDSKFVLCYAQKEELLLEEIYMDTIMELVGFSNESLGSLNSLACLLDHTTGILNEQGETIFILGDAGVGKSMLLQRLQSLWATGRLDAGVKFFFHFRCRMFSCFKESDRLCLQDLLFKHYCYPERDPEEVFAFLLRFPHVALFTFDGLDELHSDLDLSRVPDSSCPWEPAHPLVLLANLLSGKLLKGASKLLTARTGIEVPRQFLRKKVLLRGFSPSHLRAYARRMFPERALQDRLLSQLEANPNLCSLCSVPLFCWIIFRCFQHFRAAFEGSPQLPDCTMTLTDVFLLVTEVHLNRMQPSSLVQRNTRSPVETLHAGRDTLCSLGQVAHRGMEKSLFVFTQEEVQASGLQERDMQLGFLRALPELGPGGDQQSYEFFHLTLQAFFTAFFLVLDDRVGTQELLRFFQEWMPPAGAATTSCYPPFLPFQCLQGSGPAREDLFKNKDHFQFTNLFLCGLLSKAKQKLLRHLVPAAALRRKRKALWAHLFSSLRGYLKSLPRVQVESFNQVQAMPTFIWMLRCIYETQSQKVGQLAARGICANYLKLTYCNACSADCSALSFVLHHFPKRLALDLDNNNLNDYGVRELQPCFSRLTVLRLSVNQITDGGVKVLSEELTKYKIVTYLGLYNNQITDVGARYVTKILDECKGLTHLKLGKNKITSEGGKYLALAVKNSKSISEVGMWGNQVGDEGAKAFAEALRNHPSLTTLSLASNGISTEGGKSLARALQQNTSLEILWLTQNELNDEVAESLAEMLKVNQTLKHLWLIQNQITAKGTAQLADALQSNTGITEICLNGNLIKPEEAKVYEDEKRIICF

INS1 = test: INS-1E survival protection against cytokine death – cell-based, luminescence, retest, dose response (AID 449756); format: functional; conditions: Rattus norvegicus;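 further: cell death triggered by IL-1 beta plus TNF-alpha plus IFN-gamma mixture; protective hits raise ATP signal compared with cytokine alone wells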
[6] = reduction of Shn3 3'UTR-driven luciferase in osteoblasts – cell-based, Clone20 osteoblasts, firefly luciferase, cherry-picked, dose response (AID 624132); format: functional;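 further: firefly luciferase luminescence from reporter carrying the Shn3 3'UTR in osteoblasts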
[7] = non-specific 3'UTR reporter inhibition in Clone20-Shn3RL – cell-based, Renilla luciferase, cherry-picked, counter-screen for Shn3 inhibitor project, dose response (AID 624133); format: functional
[8] = target: T2, COUP transcription factor 2 (Homo sapiens, UniProt P24468); test: Luminescence-based cell-based high throughput dose response assay to identify inhibitors of COUP-TFII (NR2F2).; format: functional;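 further: HEK293 cells transiently cotransfected with COUP-TFII expression vector and reporter; luciferase reporter luminescence driven by COUP-TFII from the pX2-168 reporter plasmid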
T2 sequence (P24468 whole entry): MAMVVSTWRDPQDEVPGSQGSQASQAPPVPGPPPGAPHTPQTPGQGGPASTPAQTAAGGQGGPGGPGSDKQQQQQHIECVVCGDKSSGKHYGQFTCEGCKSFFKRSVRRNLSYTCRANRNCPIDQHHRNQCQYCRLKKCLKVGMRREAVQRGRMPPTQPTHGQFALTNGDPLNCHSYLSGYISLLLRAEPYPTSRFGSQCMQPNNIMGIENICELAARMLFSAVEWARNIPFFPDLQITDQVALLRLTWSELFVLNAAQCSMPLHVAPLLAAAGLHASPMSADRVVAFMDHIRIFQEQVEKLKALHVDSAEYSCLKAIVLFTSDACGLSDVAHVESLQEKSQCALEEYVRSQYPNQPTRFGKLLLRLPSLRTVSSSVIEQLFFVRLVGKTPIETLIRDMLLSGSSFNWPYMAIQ

HEK293 [9] = test: cells; conditions: Homo sapiens
[10] = blockers of HIV-1 envelope-mediated cell-cell fusion – cherry-pick, dose response (AID 652057); format: functional, cell-based
[11] = viability loss in CEM21 cells – cell-based, CellTiter-Glo luminescence, cherry-picked, cytotoxicity control for viral fusion inhibitor project, dose response (AID 652042); format: functional;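 further: potency for signal decrease meaning cytotoxicity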
[12] = HIV-1 AD8 envelope cell-cell fusion blockers – cherry-pick, dose response (AID 652062); format: functional, cell-based;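 further: luciferase signal from cell-cell fusion driven by HIV-1 clade B AD8 Env; potency is for inhibitors of fusion seen as a drop in luminescence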
[13] = A549 cell cytotoxicity, dose response, cytotoxicity control, plate reader, cherry-pick, antagonist series (AID 743412); format: functional, cell-based
[14] = toxicity toward HepG2 liver cells – cell-based, plate reader, cherry-pick, antagonist series, cytotoxicity control, dose response (AID 743416); format: functional
[15] = blockers of bursicon-stimulated LGR2 cAMP reporter – cell-based, HEK293, CRE-luciferase reporter, cherry pick, set 2, dose response (AID 743343); format: functional;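 further: transfected cells were stimulated with diluted bursicon conditioned medium after compound addition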
[16] = blockade of melanocortin 4 receptor signaling – cell-based, plate reader, cherry pick, counter-screen for LGR2 antagonist project, dose response (AID 743444); format: functional;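 further: transfected HEK 293 cells stimulated with alpha-MSH peptide; potency of inhibitors of the alpha-MSH evoked signal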
[17] = viability loss in HEK293 cells – cell-based, plate reader, cherry-picked samples, cytotoxicity control, dose response (AID 743446); format: functional
Major prion protein = Major prion protein (Homo sapiens, UniProt P04156); format: functional, cell-based
cells [18] = test: cells
[19] = target: Voltage-dependent T-type calcium channel subunit alpha-1H (Homo sapiens, UniProt O95180); format: functional;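 further: channel activity triggered by adding a high calcium stimulation buffer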
[20] = blockers of HIV-1 ZM109 envelope-driven cell-cell fusion – HeLa effector, CEM target cells, luciferase, cherry-pick, dose response (AID 652058); format: functional, cell-based;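 further: luciferase signal from HIV-1 Env mediated cell-cell fusion of effector and target cells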
[21] = off-target signal loss in HeLa-CEM21 co-culture – HeLa F-luc CTL cells, cherry-picked, counter-screen for HIV-1 Env fusion inhibitor project, dose response (AID 652040); format: functional, cell-based;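 further: potency for signal decrease marking cytotoxic or nonspecific inhibition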
cells [22] = format: functional, cell-based
[23] = target: T3, Trace amine-associated receptor 1 (Homo sapiens, UniProt Q96RJ0); test: Fluorescence-based cell-based high throughput dose response assay to identify agonists of the human trace amine associated receptor 1 (TAAR1).; format: functional
T3 sequence (Q96RJ0 whole entry): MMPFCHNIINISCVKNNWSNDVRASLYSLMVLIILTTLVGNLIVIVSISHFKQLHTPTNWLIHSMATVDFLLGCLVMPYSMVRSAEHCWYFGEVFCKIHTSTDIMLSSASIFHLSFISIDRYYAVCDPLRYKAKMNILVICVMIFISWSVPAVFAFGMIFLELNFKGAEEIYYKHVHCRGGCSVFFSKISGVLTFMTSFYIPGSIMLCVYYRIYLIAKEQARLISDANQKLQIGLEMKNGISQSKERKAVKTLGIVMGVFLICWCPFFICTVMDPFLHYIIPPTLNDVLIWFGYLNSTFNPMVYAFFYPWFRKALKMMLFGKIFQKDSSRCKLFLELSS

[24] = target: T3, Trace amine-associated receptor 1; test: Counterscreen for agonists of the human trace amine associated receptor 1 (hTAAR1): Fluorescence-based cell-based high throughput dose response assay to identify hTAAR1 agonist that also desensitize TAAR1 receptor response.; format: functional
cells [25] = format: functional, cell-based; remark: listed apart in the source
[26] = HGIII-sPLA2 enzyme inhibition potency – biochemical, QFRET, IC50, dose response (AID 743457);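 further: green fluorescence rise as the enzyme cleaves BODIPY PC-A2 in liposomes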

Which results are given for `Cc1cc(C(=O)NC2CCCc3c2cnn3-c2cccc(C)c2C)n(C)n1` (configuration not stated)?
EC50 (HEK293 [1]): 0.17 µM (active); IC50 (HEK293 [2]): 0.922 µM (active); IC50 (HEK293 [3]): > 20 µM (inactive); IC50 (HEK293 [4]): 0.609 µM (inactive); IC50 (Tumor necrosis factor): 0.703 µM (active); IC50 [5]: 0.289 µM (active); AC50 (INS1): 0.216 µM (active); AC50 [6]: < 0.26 µM (active); AC50 [7]: < 0.26 µM (active); IC50 [8]: 0.628 µM (active); IC50 (HEK293 [9]): > 20 µM (inactive)

With `Clc1ccc(-n2ncc3c(NCCN4CCOCC4)ncnc32)cc1` as the compound, how does the IC50 [8] read?
Its IC50 is 35.7 µM (inactive).

Which AC50 [10] does the source give for `N#C[C@H]1[C@@H](c2ccc(-c3ccccc3)cc2)[C@@H](CO)N1S(=O)(=O)Cc1ccccc1` here?
Its AC50 is 1.93 µM (active).

And the AC50 [11]?
The AC50 was 41.5 µM (active).

What about the AC50 [12] of the same compound?
The AC50 was 4.94 µM (active).

For `O=C(Nc1ccc(N2CCN(C(=O)c3ccccc3)CC2)c(Cl)c1)c1ccc(Br)o1`, which AC50 [13] is on record?
The AC50 was 34.9 µM (active).

What about the AC50 [14] of the same compound?
Its AC50 is 35 µM (active).

And the AC50 [15]?
The AC50 was 16.6 µM (active).

What about the AC50 [16] of the same compound?
The AC50 was 14.9 µM (active).

And the AC50 [17]?
Its AC50 is 21.5 µM (active).

Which IC50 [8] does the source give for `CC(=O)N[C@@H](C)c1nc2ccccc2n1CCCN1CCN(c2nc(-c3ccc(C)cc3)cs2)CC1` here?
The IC50 was 6.84 µM (active).

Which IC50 (Major prion protein) does the source give for `O=C(O)c1ccccc1SCc1csc(-c2ccccc2)n1` here?
The IC50 was 6.49 µM (active).

What about the IC50 (cells [18]) of the same compound?
The IC50 was > 138 µM (inactive).

For `Clc1ccc(C(c2nnnn2CCc2ccccc2)N2CCSCC2)cc1` (configuration not stated), which EC50 [19] is on record?
The EC50 was 8.87 µM (active).

What about the AC50 [10] of the same compound?
The AC50 was 2 µM (active).

And the AC50 [11]?
The AC50 was 62.2 µM (active).

What about the AC50 [20] of the same compound?
Its AC50 is 7.63 µM (active).

And the AC50 [21]?
Its AC50 is 4.45 µM (active).

What about the AC50 [12] of the same compound?
Its AC50 is 1.14 µM (active).

For `COc1ccccc1CCn1cnc(-c2ccccc2OC)c1C(C)C`, which IC50 (cells [22]) is on record?
The IC50 was 11.8 µM (inactive).

What about the EC50 [23] of the same compound?
The EC50 was 5.14 µM (active).

And the IC50 [24]?
Its IC50 is 3.82 µM (active).

And the EC50 (cells [25])?
Its EC50 is > 29.9 µM (inactive).

And the AC50 [14]?
The AC50 was 29.8 µM (active).

What about the AC50 [16] of the same compound?
Its AC50 is 29.4 µM (active).

And the AC50 [17]?
Its AC50 is > 52 µM (inactive).

Which IC50 [26] does the source give for `COc1ccc(Cl)cc1C(=O)NN=C(S)NC1CCCC1` here?
Its IC50 is > 122 µM (inactive).
